Source: patent publication US10106505B2, “Composition and methods for modulating a kinase cascade” (Athenex, Inc., priority 2012, dated 2018)
“Also recorded” adds a separate entry of the source. Like-named read-outs stand apart in the source and are kept apart here.

What was measured:
[1] = tested on: aggressive brain tumors; assay: Mice with aggressive brain tumors (mouse model of malignant glioma); format: in vivo
Protocol: (§1) Compound 1 is a synthetic, orally bioavailable, novel small molecule microtubule polymerization inhibitor with very high CNS penetration. The efficacy of compound 1 as a novel anti-cancer agent is tested directly using mouse model of malignant glioma. Compound 1 is an orally administered tubulin polymerization inhibitor that binds to a novel site on heterodimeric tubulin, and to a novel conformation of the dimer. Compound 1 can inhibit Src signaling in tumors. Compound 1 has been evaluated in various brain tumor cell lines. […] When administered orally to mice at a dose of 10 mg/kg, the ratio of drug levels in the brain compared to plasma levels was 0.76, indicating excellent blood brain barrier penetration.
(§2) Compound 1 was evaluated in various human and mouse brain tumor cells derived from glioblastoma multiforme, astrocytoma and medulloblastoma. See, e.g., US2011/0281872. […] When administered to mice compound 1 penetrated the brain by 76%, thereby successfully addressing the first major challenge in brain cancer drug discovery. Drugs which are used to treat brain tumors often penetrate only 20% or less.

[2] = Brain penetration after oral administration to mice; format: in vivo; details: mouse, 10 mg/kg
Protocol: as §1, §2

[3] = tested on: c-Src (527F, constitutively active and transforming) transformed NIH3T3 cells; assay: Src substrate phosphorylation in c-Src transformed NIH3T3 cells; format: cell-based; details: c-Src (527F) transformed NIH3T3 cells; in good correlation with growth inhibitory effects
Description: (§3) Compounds of the invention may be Src signaling inhibitors that bind in the Src peptide substrate site. The activity of various compounds of the invention has been studied in c-Src (527F, constitutively active and transforming) transformed NIH3T3 cells and in human colon cancer cells (HT29).

[4] = tested on: GL261 glioma; assay: Orthotropic GL261 glioma model in immune-competent, syngeneic C57BL/6 mice; format: in vivo
Protocol: (§4) Compound 1 was also evaluated in the orthotropic GL261 glioma model in immune-competent, syngeneic C57BL/6 mice. Mice implanted intracerebrally with 1×1^05 GL261 cells treated with vehicle alone (saline) have a median survival time (MeST) of 21 days (range 18-28). Mice treated by oral compound 1 (30 mg/kg, b.i.d.) have a MeST of 30.5 days ranging 23-32 days. In contrast, when compound 1 is given orally at (30 mg/kg, s.i.d.) the MeST increases to over 120 days, with more than 60% of the treatment group still alive 12 months later (p<0.0001). […] Further experiments were performed using a SCID version of C57BL/6 mice (B6.CB17-Prkd^cscid/SzJ), a mouse model of B6 background, but is immune-compromised.
When given as a single dose per day (s.i.d.) compound 1 led to complete tumor regression in up to 60% of treated mice without further progression. […] This magnitude of anti-tumor effect was not observed in SCID models leading to the possibility that compound 1 may be involved in an anti-tumor immune response.
When given single dose per day (s.i.d.) compound 1 led to complete tumor regression in up to 60% of treated mice without further progression.

[5] = tested on: survivin; assay: Additional molecular studies on survivin
[6] = tested on: GL261 intracerebral tumors; assay: GL261 intracerebral tumors in immune-compromised SCID C57BL/6 mice; format: in vivo, SCID version of C57BL/6 mice (B6.CB17-Prkd^cscid/SzJ)
Protocol: as §4

[7] = tested on: human colon cancer cells (HT29); assay: Src substrate phosphorylation in HT29 cells; format: cell-based; details: in good correlation with growth inhibitory effects
Description: as §3

[8] = tested on: various brain tumor cell lines (glioblastoma multiforme, astrocytoma, medulloblastoma); assay: Proliferation of brain tumor cell lines; format: cell-based, human and mouse
Protocol: as §1, §2

[9] = mice with aggressive brain tumors
[10] = oral 30 mg/kg, b.i.d., C57BL/6, intracerebral GL261
[11] = immune-compromised SCID mice bearing GL261 intracerebral tumors

SMILES: Cn1nnc2c(C(N)=O)ncn2c1=O [Temodar, Temozolamide, reference compound]
- rate of tumor growth [1, 9]: only slows the growth rate of the tumors
- complete tumor regression ([1]; mice with aggressive brain tumors, comparison drug): does not cause complete tumor regression

SMILES: O=C(Cc1ccc(-c2ccc(N3CCOCC3)cc2)cn1)NCc1cccc(F)c1 [compound 1, N-(3-fluorobenzyl)-2-(5-(4-morpholinophenyl)pyridin-2-yl)acetamide]
- Kp ([2]; brain (relative to plasma), mice, read-out: ratio of drug levels in the brain compared to plasma levels): 0.76
- Kp ([2]; brain, administered to mice, read-out: brain penetration): 0.76
- phosphorylation level of known Src protein substrates [3]: reduce the phosphorylation level of known Src protein substrates in a dose-dependent fashion
- second GL261 tumor implant challenge ([4]; "cured" / long term survivor immune-competent C57BL/6 mice): rejected a second GL261 tumor implant challenge; also recorded: rejection of a second tumor
- median survival time (MeST) [4, 10]: 30.5 days
- survival time range [4, 10]: 23 to 32 days
- median survival time (MeST) ([4]; oral 30 mg/kg, s.i.d., C57BL/6, intracerebral GL261): over 120 days
- treatment group still alive 12 months later ([4]; oral 30 mg/kg, s.i.d., p<0.0001): more than 60%
- growth rate of intracerebral GL261 glioma ([4]; relative to control groups, five independent studies): slows the growth rate
- treated mice with complete tumor regression without further progression ([4]; single dose per day (s.i.d.)): up to 60%
- expression and localization of intracellular survivin [5]: increased expression and altered the localization of intracellular survivin
- tumor outcome after drug was discontinued (observed by MRI) ([6]; SCID mice surviving greater than 45 days): all proceeded to develop lethal GL261 gliomas
- median survival time (MeST) [6, 11]: 40 days
- survival time range [6, 11]: 29 to 75 days
- phosphorylation level of known Src protein substrates [7]: reduce the phosphorylation level of known Src protein substrates in a dose-dependent fashion
- drug treated mice with complete tumor regression and no reoccurrence within normal full life span [1, 9]: up to 60%
- rate of tumor growth [1, 9]: very significantly slows the rate of tumor growth
- brain edema ([1]; versus placebo or Temodar treated mice): much less brain edema
- growth of brain tumor cells ([8]; human and mouse brain tumor cells derived from glioblastoma multiforme, astrocytoma and medulloblastoma): potently inhibited the growth
- GI50 ([8]; various brain tumor cell lines, in all cases, read-out: GI50 (inhibition of proliferation)): < 55 nM
